From patent publication US4656274A, “Polyfluorinated substituted tricyclic quinoline mono and dioxo antifungal agents and process for their preparation” (Ortho Pharmaceutical Corporation, priority 1985, dated 1987) come the findings set out here.

Holding throughout (experiment): Microbiological minimum inhibitory concentration test (agar dilution)
Format in all cases: cell-based
On the technique in general: In agar dilution, organisms are placed on agar that contains the substance at set levels.

Experiment [1] has as its system Microsporum gypseum ATCC 14683. The settings on record: Nannizzia gypsea, ATCC14683, Mycophil Agar with low pH, 32° C., growth read at 24 and 48 hours and 7 days, read-out: MIC (minimal inhibitory concentration). As for the experimental part: (§1) The antifungal activity of the polyfluorinated substituted quinoline mono- and dioxo compounds was determined according to the following procedure:
(§2) MICROBIOLOGICAL MINIMUM INHIBITORY CONCENTRATION TEST
Microsporum gypseum ATCC 14683
(§3) Mycophil Agar with low pH
(§4) A 0.5 mg/ml stock solution of each compound was volumetrically prepared in an appropriate solvent From this stock, 1:2 serial dilutions were prepared in sterile distilled water. Two ml aliquots of the stock and serial dilutions were added to tubes containing 18 ml of mycophil agar (46°-50° C.). Mixtures were poured into square 100×15 mm petri dishes and allowed to solidify.
(§5) All test organisms, except Candida albicans were harvested from six day mycophil agar slants. Candida albicans was diluted from a frozen stock culture. Inocula were diluted with sterile saline to contain approximately 1×10^8 CFUs per ml. Plate counts were performed on 1 ml of all inocula.
(§6) Each plate and appropriate solvent and unadulterated agar growth control was inoculated in duplicate with the inocula prepared above using a Steer's Replicator method.
(§7) Plates were then incubated at 32° C. Observations for growth were made at 24 and 48 hours and 7 days.
(§8) These MIC data are found in Table I.

The test system of experiment [2] is Microsporum canis JJP #143. As to conditions: Mycophil Agar with low pH, 32° C., growth read at 24 and 48 hours and 7 days, read-out: MIC (minimal inhibitory concentration). As for the experimental part: as §1, §2
Microsporum canis JJP #143
as §3, §4, §5, §6, §7, §8

In experiment [3] the test system is Candida albicans ATCC 10231. As to conditions: ATCC10231, Mycophil Agar with low pH, 32° C., growth read at 24 and 48 hours and 7 days, read-out: MIC (minimal inhibitory concentration). As for the experimental part:
as §1, §2
Candida albicans ATCC 10231
as §3, §4, §5, §6, §7, §8

Experiment [4] deals with Trichophyton rubrum ATCC 10218. The settings on record: ATCC10218, Mycophil Agar with low pH, 32° C., growth read at 24 and 48 hours and 7 days, read-out: MIC (minimal inhibitory concentration). As for the experimental part: as §1, §2
Trichophyton rubrum ATCC 10218
as §3, §4, §5, §6, §7, §8

Experiment [5] has as its system Trichophyton mentagrophytes ATCC 22839. As to conditions: ATCC22839, Mycophil Agar with low pH, 32° C., growth read at 24 and 48 hours and 7 days, read-out: MIC (minimal inhibitory concentration). As for the experimental part:
as §1, §2
Trichophyton mentagrophytes ATCC 22839
as §3, §4, §5, §6, §7, §8

For experiment [6], the system named is Epidermophyton floccosum ATCC 15693. As to conditions: ATCC15693, Mycophil Agar with low pH, 32° C., growth read at 24 and 48 hours and 7 days, read-out: MIC (minimal inhibitory concentration). How it is done:
as §1, §2
Epidermophyton floccosum ATCC 15693
as §3, §4, §5, §6, §7, §8

The structures appear in SMILES notation. In brackets after ≈: the same amount, converted by molar mass.

For `CC1(C)CC(=O)c2cc3c(F)c(F)c(F)c(F)c3nc2C1` [II, 5,6,7,8-Tetrafluoro-2,2-dimethylbenzo[2,1-b]quinolin-4-one], the MIC amounted to 9.4 µg/mL (≈ 31.6 µM) in experiment [1]; 25 µg/mL (≈ 84.1 µM) in experiment [2]; 50 µg/mL (≈ 168 µM) in experiment [3]; 6.2 µg/mL (≈ 20.9 µM) in experiment [4]; 6.2 µg/mL (≈ 20.9 µM) in experiment [5]; 1.5 µg/mL (≈ 5.05 µM) in experiment [6].
As for `Cn1c(=O)c2cc3c(F)c(F)c(F)c(F)c3nc2n(C)c1=O` [I, 5,6,7,8-Tetrafluoro-1,3-dimethylpyrimidinol[6,5-b]quinolin-2,4-dione], the MIC in experiment [1] worked out at 4.6 µg/mL (≈ 14.7 µM); in experiment [2], 25 µg/mL (≈ 79.8 µM); in experiment [3] it was 50 µg/mL (≈ 160 µM); in experiment [4], 1.6 µg/mL (≈ 5.11 µM); in experiment [5] it was 25 µg/mL (≈ 79.8 µM); in experiment [6], 0.39 µg/mL (≈ 1.25 µM).
